This is an account of results in publication PMC8879107, “A3 Adenosine Receptor Antagonists with Nucleoside Structures and Their Anticancer Activity” (Pharmaceuticals, 2022).

Assay [1] deals with T1, human A3AR (Homo sapiens, UniProt P0DMS8).
T1 sequence (P0DMS8 1-318): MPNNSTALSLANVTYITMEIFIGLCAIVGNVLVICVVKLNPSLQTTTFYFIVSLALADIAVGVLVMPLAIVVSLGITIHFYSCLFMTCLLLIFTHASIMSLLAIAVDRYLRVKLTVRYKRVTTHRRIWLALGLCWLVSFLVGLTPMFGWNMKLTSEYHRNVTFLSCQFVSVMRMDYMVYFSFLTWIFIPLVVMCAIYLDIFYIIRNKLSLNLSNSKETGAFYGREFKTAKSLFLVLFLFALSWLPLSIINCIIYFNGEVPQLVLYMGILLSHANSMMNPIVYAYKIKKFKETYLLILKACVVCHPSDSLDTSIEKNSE
On the set-up: expressed in transfected cells; host or cells: CHO cells stably expressing A3AR and the GloSensor biosensor plasmid; method as in PMID 29763615, PMID 19839592. The settings on record: cited from earlier work.

The subject of assay [2] is human prostate (PC3), colon (Caco-2) and hepatocyte (Hep G2) carcinomas. Set-up: method as in PMID 29763615. The settings on record: all three tumor cell lines PC3, Caco-2, Hep G2; cited from earlier work.
Assay [3] has as its target T1, human A3AR. The experiment in a line: Radioligand binding assay, displacement of [3H]HEMADO in CHO cell membranes. The note with it: ratio of Ki values; for A1/A3: A3AR selectivity vs A1AR; for A2A/A3: A3AR selectivity vs A2AAR. The procedure:
In the case of A2BAR, the potency of selected compounds was determined through a functional GloSensor cAMP assay.
All pharmacological methods followed the procedures as described earlier. In brief, membranes for radioligand binding were prepared from CHO cells stably transfected with human adenosine receptor subtypes through two centrifugations at different speeds. The first low-speed (1000 g) centrifugation allowed the removing of cell fragments and nuclei, while the second, performed at high speed (100,000 g), allowed the precipitation of the crude membrane fractions.
The binding affinity of the novel compounds was evaluated using radioligand competition experiments in CHO cells stably expressing hA1AR, hA2AAR, and hA3AR subtypes. […] Results were expressed as Ki values (dissociation constants), which were calculated with the program GraphPad (GraphPAD Software, San Diego, CA, USA). Each concentration was tested three–five times in duplicate and the values are given as the mean ± standard error (S.E.).
On the technique in general: In a radioligand displacement assay an active substance lowers the binding of a labelled ligand.

The test system of assay [4] is PC3 prostate cancer cell line. Description: Sulforhodamine B (SRB) cell growth inhibition assay. The note with it: for GI50 / CC50 / IC100: Homo sapiens, 48 h; for CC50: read-out: LC50 (μM); for IC100: read-out: TGI (μM); for TGI: PC3, 48 h, concentration to inhibit 100% of cell growth, mean ± SD.
In the next assay the target is T2, human recombinant A1AR (Homo sapiens, UniProt P30542).
T2 sequence (P30542 1-326): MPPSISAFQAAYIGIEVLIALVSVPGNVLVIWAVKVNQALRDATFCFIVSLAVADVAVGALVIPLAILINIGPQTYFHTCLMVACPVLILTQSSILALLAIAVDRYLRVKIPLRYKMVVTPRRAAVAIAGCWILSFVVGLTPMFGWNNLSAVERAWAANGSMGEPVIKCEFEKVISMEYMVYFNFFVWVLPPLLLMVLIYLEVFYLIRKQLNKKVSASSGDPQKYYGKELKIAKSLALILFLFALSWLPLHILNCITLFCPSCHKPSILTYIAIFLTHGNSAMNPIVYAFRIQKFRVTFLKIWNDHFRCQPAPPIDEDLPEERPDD
The settings on record: [3H]CCPA, CHO membranes; read-out: hA1R (Ki nM); cited from earlier work.

Assay [5] has as its target T1, human A3AR. The note with it: cited from earlier work.
Another assay concerns the target human recombinant A2AAR (Homo sapiens, UniProt P29274). The note with it: [3H]NECA, CHO membranes; read-out: hA2AR (Ki nM); cited from earlier work.
For assay [6], the target named is T1, human A3AR. Description: GloSensor cAMP accumulation assay (agonism/antagonism) at A3AR in CHO cells. In kind it is cell-based. On the set-up: expressed in transfected cells; host or cells: CHO cells stably expressing A3AR and the GloSensor biosensor plasmid. How it is done:
CHO cells stable expressing A2B or A3ARs and the plasmid encoding the biosensor were used to study functional agonism and antagonism of understudy ligands. The desired cell number was incubated in equilibration medium containing a 3% v/v GloSensor cAMP reagent stock solution, 10% FBS and 87% of CO2 independent media. After 2 h of incubation, cells were dispensed in wells of 384 well plate and when a steady-state basal signal was obtained the agonism profile was studied, adding to wells the reference agonist NECA or compounds at different concentrations. In the case of the Gi coupled receptor A3AR Forskolin (FSK) 10 μM was added 10 min after the agonists and various luminescence readings were performed at different incubation times.
The antagonist profile of the compounds was evaluated by assessing their ability to counteract an agonist-induced increase or decrease (A2B and A3ARs, respectively) of cAMP accumulation. The cells were incubated with different antagonist concentrations and then treated with a fixed dose of NECA (10 μM for A2BAR and 1 μM for A3AR). FSK 10 μM was added 10 min after the agonists and various luminescence reads were performed at different incubation times.
Responses were expressed as percentage of the maximal relative luminescence units (RLU) and concentration–response curves were fitted by a nonlinear regression with the Prism program (GraphPAD Software, San Diego, CA, USA). The agonist or antagonist profile of compounds was expressed as EC50 or IC50, respectively. Each concentration was tested three–five times in duplicate and the values are given as the mean ± S.E.
In general terms: Cyclic AMP is a second messenger, typically raised through Gs and lowered through Gi signalling.

Setting [7] is: A3AR affinity repeated in Table 2, read-out: A3AR.
Setting [8] is: [3H]HEMADO, CHO membranes, read-out: hA3R (Ki nM).

Where two headings read alike, the source gives them in different places.

Sequence of human recombinant A2AAR (P29274 whole entry): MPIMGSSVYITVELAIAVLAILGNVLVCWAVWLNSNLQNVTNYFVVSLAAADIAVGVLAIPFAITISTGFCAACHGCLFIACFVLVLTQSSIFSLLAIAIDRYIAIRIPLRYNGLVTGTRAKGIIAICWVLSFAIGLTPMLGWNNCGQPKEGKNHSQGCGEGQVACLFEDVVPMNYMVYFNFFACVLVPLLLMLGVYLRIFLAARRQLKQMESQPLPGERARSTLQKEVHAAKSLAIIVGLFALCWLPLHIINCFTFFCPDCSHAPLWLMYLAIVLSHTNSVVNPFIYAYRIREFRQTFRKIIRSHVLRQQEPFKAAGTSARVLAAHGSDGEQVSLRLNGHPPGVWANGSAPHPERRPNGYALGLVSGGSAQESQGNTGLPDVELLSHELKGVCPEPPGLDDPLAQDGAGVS

Consider `CNC(=O)[C@H]1O[C@@H](n2cnc3c(NC)nc(C#Cc4ccccc4)nc32)[C@H](O)[C@@H]1O` [Compound 3, N^6-methyl-2-phenylethynyladenosine-5′-N-methyluronamide, reference compound], for which the “functional behaviour at A3AR” value on human A3AR [1] was “full A3AR agonist”. The “anticancer effect (cell growth inhibition)” value in assay [2] is “almost inactive”.
One may read the GI50 as the concentration that inhibits growth by half. Lower therefore signals greater sensitivity of the cells. As usually defined, the TGI is the concentration at which net growth stops. A low value points to more potent growth arrest. For `OC[C@H]1O[C@@H](n2cnc3c(NCCc4ccccc4)nc(NCCc4ccccc4)nc32)[C@H](O)[C@@H]1O` [Compound 5, 2-Phenylethylamino-N^6-(2-phenylethyl)adenosine], on human A3AR [3], the A1/A3 is 1082 fold and the A2A/A3 is reported as 4145 fold. Further, in assay [4], halving of growth (GI50) required 237000 ± 9400 nM, the CC50 was > 500 µM, the IC100 was > 500 µM and the “TGI” value is >500000 nM. In addition, the “anticancer effect (cell growth inhibition)” value in assay [2] was “very good antitumor activity”. The Ki at human recombinant A1AR is 357 nM. On human A3AR [5] (setting [7]), the Ki was 0.33 nM. Also, the Ki on human A3AR [5] (setting [8]) is 0.33 nM. Also, the Ki on human recombinant A2AAR was 1370 nM.
A word on the IC50: it is the concentration at which inhibition is half-maximal. As for `CCCCC#Cc1nc(NCC(c2ccccc2)c2ccccc2)c2ncn([C@@H]3O[C@H](CO)[C@@H](O)[C@H]3O)c2n1` [Compound 4, 2-Hexynyl-N^6-(2,2-diphenylethyl)adenosine], at human A3AR [3], the A1/A3 is 36 fold and the A2A/A3 is given as 6 fold. In assay [4], the GI50 was 16000 ± 500 nM, the CC50 worked out at 80 ± 9.8 µM, the IC100 turned out to be 35 µM and the “TGI” value came out at 35000 ± 1500 nM. Besides, the “anticancer effect (cell growth inhibition)” value in assay [2] is “very good antitumor activity”. The molecule further displayed an IC50 on human A3AR [6] (antagonism: counteracting agonist (NECA 1 μM) induced decrease of cAMP, forskolin 10 μM, mean ± S.E.) of 380 ± 80 nM. The “functional behaviour at A3AR (agonist/antagonist)” value on human A3AR [6] (forskolin 10 µM stimulated cAMP, compared to Cl-IB-MECA) is listed as “antagonists”. The Ki at human recombinant A1AR is 984 nM. Besides, on human A3AR [5] (setting [7]), the Ki was 27 nM. At human A3AR [5] (setting [8]), the Ki was 27 nM. For the same molecule, the Ki at human recombinant A2AAR was 153 nM.
